One assay deals with CD8+ T cells. As to the kind of experiment: In vitro immunogenicity: T-cell priming with aAPCs loaded with peptide/MHC complexes and anti-CD28 antibody, pMHC multimer readout (Tables 19A, 19B). The class given is cell-based, human. The note with it: in vitro immunogenicity of HLA class I peptides, pMHC multimer readout after priming of CD8+ T cells. As for the experimental part: In an aspect, the peptides are pre-screened for immunogenicity before being included in the warehouse. By way of example, and not limitation, the immunogenicity of the peptides included in the warehouse is determined by a method comprising in vitro T-cell priming through repeated stimulations of CD8+ T cells from healthy donors with artificial antigen presenting cells loaded with peptide/MHC complexes and anti-CD28 antibody.
In order to obtain information regarding the immunogenicity of the TUMAPs of the present invention, the inventors performed investigations using an in vitro T-cell priming assay based on repeated stimulations of CD8+ T cells with artificial antigen presenting cells (aAPCs) loaded with peptide/MHC complexes and anti-CD28 antibody.
In order to perform in vitro stimulations by artificial antigen presenting cells loaded with peptide-MHC complex (pMHC) and anti-CD28 antibody, the inventors first isolated CD8+ T cells from fresh HLA-A*02 leukapheresis products via positive selection using CD8 microbeads (Miltenyi Biotec, Bergisch-Gladbach, Germany) of healthy donors obtained from the University clinics Mannheim, Germany, after informed consent.
PBMCs and isolated CD8+ lymphocytes were incubated in T-cell medium (TCM) until use consisting of RPMI-Glutamax (Invitrogen, Karlsruhe, Germany) supplemented with 10% heat inactivated human AB serum (PAN-Biotech, Aidenbach, Germany), 100 U/ml Penicillin/100 μg/ml Streptomycin (Cambrex, Cologne, Germany), 1 mM sodium pyruvate (CC Pro, Oberdorla, Germany), 20 μg/ml Gentamycin (Cambrex). 2.5 ng/ml IL7 (PromoCell, Heidelberg, Germany) and 10 U/ml IL-2 (Novartis Pharma, Nurnberg, Germany) were also added to the TCM at this step.
Generation of pMHC/anti-CD28 coated beads, T-cell stimulations and readout was performed in a highly defined in vitro system using four different pMHC molecules per stimulation condition and 8 different pMHC molecules per readout condition.
The purified co-stimulatory mouse IgG2a anti human CD28 Ab 9.3 (Jung et al., 1987) was chemically biotinylated using Sulfo-N-hydroxysuccinimidobiotin as recommended by the manufacturer (Perbio, Bonn, Germany). Beads used were 5.6 μm diameter streptavidin coated polystyrene particles (Bangs Laboratories, Illinois, USA).
pMHC used for positive and negative control stimulations were A*0201/MLA-001 (peptide […] (SEQ ID NO. 303) from modified Melan-A/MART-1) and A*0201/DDX5-001 ([…] from DDX5, SEQ ID NO. 304), respectively.
800.000 beads/200 μl were coated in 96-well plates in the presence of 4×12.5 ng different biotin-pMHC, washed and 600 ng biotin anti-CD28 were added subsequently in a volume of 200 μl. Stimulations were initiated in 96-well plates by co-incubating […] CD8+ T cells with 2×10^5 washed coated beads in 200 μl TCM supplemented with 5 ng/ml IL-12 (PromoCell) for 3 days at 37° C. Half of the medium was then exchanged by fresh TCM supplemented with 80 U/ml IL-2 and incubating was continued for 4 days at 37° C. This stimulation cycle was performed for a total of three times. For the pMHC multimer readout using 8 different pMHC molecules per condition, a two-dimensional combinatorial coding approach was used as previously described (Andersen et al., 2012) with minor modifications encompassing coupling to 5 different fluorochromes. Finally, multimeric analyses were performed by staining the cells with Live/dead near IR dye (Invitrogen, Karlsruhe, Germany), CD8-FITC antibody clone SK1 (BD, Heidelberg, Germany) and fluorescent pMHC multimers. For analysis, a BD LSRII SORP cytometer equipped with appropriate lasers and filters was used. Peptide specific cells were calculated as percentage of total CD8+ cells. Evaluation of multimeric analysis was done using the FlowJo software (Tree Star, Oreg., USA). In vitro priming of specific multimer+ CD8+ lymphocytes was detected by comparing to negative control stimulations.

For a further assay, the system named is HLA-A*24. As to the kind of experiment: MHC binding assay, UV-ligand exchange with β2m ELISA, HLA-A*24 (Table 21). Further details: species or system human. The note with it: binding to HLA-A*24 ranged by peptide exchange yield (UV-ligand exchange, β2m ELISA). An outline of the steps: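 Peptide–MHC complexes made by UV-ligand exchange of a UV-cleavable peptide, diluted 100-fold and captured on streptavidin plates. Stabilized complexes detected by HRP anti-β2m ELISA (1 h, 37° C, A450). Exchange yield derived against refolded HLA-A*02:01/MLA-001 monomer standards (15-500 ng/ml).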

For the substance “167 (NYINRILKL; listed as Homo sapiens) [compound 167]”, in the assay with CD8+ T cells, the “Wells positive [%]” value was “+ (<20% = +)”. In addition, the Peptide exchange result in the assay with HLA-A*24 is “++++ (≧75% = ++++)”.
On to “168 (KYQDILETI; listed as Homo sapiens) [compound 168]”, for which, in the assay with CD8+ T cells, the “Wells positive [%]” value is listed as “++ (20%-49% = ++)”. The Peptide exchange result in the assay on HLA-A*24 was “++++ (≧75% = ++++)”.
In the case of “169 (AYTLIAPNI; listed as Homo sapiens) [compound 169]”, the “Wells positive [%]” value in the assay on CD8+ T cells is recorded as “+++ (50%-69% = +++)”. In the assay with HLA-A*24, the Peptide exchange result is given as “+++ (50%-75% = +++)”.
In the case of “173 (IYSWILDHF; listed as Homo sapiens) [compound 173]”, in the assay on CD8+ T cells, the “Wells positive [%]” value is recorded as “++ (20%-49% = ++)”. Also, the Peptide exchange result in the assay with HLA-A*24 is listed as “++++ (≧75% = ++++)”.
As to “176 (EYNQWFTKL; listed as Homo sapiens) [compound 176]”, the “Wells positive [%]” value with CD8+ T cells is listed as “+++ (50%-69% = +++)”. The Peptide exchange entry in the assay with HLA-A*24 is “+++ (50%-75% = +++)”.
For “196 (LYIDRPLPYL; listed as Homo sapiens) [compound 196]”, in the assay with CD8+ T cells, the “Wells positive [%]” value is on record as “++++ (≧70% = ++++)”. Further, the Peptide exchange result with HLA-A*24 was “+++ (50%-75% = +++)”.
The corresponding values for “197 (EYSLFPGQVVI; listed as Homo sapiens) [compound 197]” are “+ (<20% = +)” and “+++ (50%-75% = +++)”.
The corresponding values for “199 (RYAEEVGIF; listed as Homo sapiens) [compound 199]” are “++ (20%-49% = ++)” and “+++ (50%-75% = +++)”.
On the same counts, the results for “200 (YYGPSLFLL; listed as Homo sapiens) [compound 200]” are “++ (20%-49% = ++)” and “+++ (50%-75% = +++)”.
As to “204 (TYELRYFQI; listed as Homo sapiens) [compound 204]”, the “Wells positive [%]” value in the assay with CD8+ T cells is “+ (<20% = +)”. In addition, in the assay on HLA-A*24, the Peptide exchange entry is “++++ (≧75% = ++++)”.
The corresponding values for “207 (AYVVFVSTL; listed as Homo sapiens) [compound 207]” are “+ (<20% = +)” and “++ (20%-49% = ++)”.
Consider “218 (YYKSTSSAF; listed as Homo sapiens) [compound 218]”, for which, in the assay with CD8+ T cells, the “Wells positive [%]” value is listed as “+ (<20% = +)”. Also, the Peptide exchange entry with HLA-A*24 is recorded as “+++ (50%-75% = +++)”.
Turning to “222 (TFSVSSHLF; listed as Homo sapiens) [compound 222]”, the “Wells positive [%]” value in the assay with CD8+ T cells is recorded as “++ (20%-49% = ++)”. Moreover, the Peptide exchange entry with HLA-A*24 is given as “+++ (50%-75% = +++)”.
For “268 (QYLGQIQHI; listed as Homo sapiens) [compound 268]”, the “Wells positive [%]” value with CD8+ T cells is recorded as “+ (<20% = +)”. For the same substance, the Peptide exchange entry in the assay on HLA-A*24 was “+++ (50%-75% = +++)”.
For the substance “269 (YFIDSTNLKTHF; listed as Homo sapiens) [compound 269]”, the “Wells positive [%]” value in the assay with CD8+ T cells was “+ (<20% = +)”. Also, the Peptide exchange entry in the assay on HLA-A*24 is recorded as “+++ (50%-75% = +++)”.
The corresponding values for “281 (PYRLIFEKF; listed as Homo sapiens) [compound 281]” are “+++ (50%-69% = +++)” and “++ (20%-49% = ++)”.
Consider “285 (HYPPVQVLF; listed as Homo sapiens) [compound 285]”, for which the “Wells positive [%]” value with CD8+ T cells was “+ (<20% = +)”. For the same substance, the Peptide exchange entry in the assay on HLA-A*24 is reported as “+++ (50%-75% = +++)”.

(Values after patent publication US20170189504A1, “NOVEL PEPTIDES AND COMBINATION OF PEPTIDES FOR USE IN IMMUNOTHERAPY AGAINST VARIOUS CANCERS” (immatics biotechnologies GmbH, priority 2015, published 2017).)
